Experimental data reported in patent US9161502B2, “Brassica juncea lines with a canola fatty acid profile” (PIONEER HI BRED INTERNATIONAL INC, priority 2007, dated 2015).

Test system: B. juncea seed
Assay: EMS kill curves: germination of B. juncea seed treated with various concentrations of EMS
Assay type: in vivo, Brassica juncea
Settings: for % germination: seeds soaked 18 hours, germination box 25° C., 7 days
Method: A bulk population (99SJ-1309) was created for this experiment from 8 different low glucosinolate and low erucic acid B. juncea breeding lines. These lines were selected for a range of quality and agronomic traits such as oil content and seed size. 500 seeds of the bulk population were used for each treatment of the following experiment. The seeds were soaked in various concentrations EMS for 18 hours and then washed 3 times. A sub-sample of 100 seeds was placed in a germination box at 25° C. for 7 days. After 7 days, the number of seeds that germinated and produced a healthy radicle was calculated. All seeds that were treated with EMS took at least 2 days longer to germinate than controls.
EMS treatment of seed affected the germination rate (FIG. 1, Table 2 and Table 3). […] This experiment was not replicated. Its purpose was to evaluate the effect of EMS on seed germination rate. The first experiment was designed to test a broad range of EMS application rates and the second experiment was to reduce the range of EMS treatment to develop the desirable mutations (Table 3).

## CCOS(C)(=O)=O [EMS, ethyl methane sulfonate]
0.36% EMS treatment rate
  germination rate versus expectation: much lower germination rate than expected
0.48% EMS, text summary of Experiment 1
  germination rate: approximately 50%
All seeds treated with EMS
  delay of germination versus controls: at least 2 days
Highest concentrations of EMS
  germination rates: less than 50%
Kill curve #1 (Treatment 1), EMS 0.16% w/v
  % germination: 93%
Kill curve #1 (Treatment 1), EMS 0.33% w/v
  % germination: 90%
Kill curve #1 (Treatment 1), EMS 0.48% w/v
  % germination: 61%
Kill curve #1 (Treatment 1), EMS 0.64% w/v
  % germination: 39%
Kill curve #2 (Treatment 2), EMS 0.36% w/v
  % germination: 57%
Kill curve #2 (Treatment 2), EMS 0.42% w/v
  % germination: 68%
Kill curve #2 (Treatment 2), EMS 0.48% w/v
  % germination: 43%
Kill curve #2 (Treatment 2), EMS 0.56% w/v
  % germination: 46%
Lowest concentrations (0.16 and 0.33%)
  effect on germination rate: little effect on germination rate
